Literature values in patent US5807981A (FibroGen Inc., priority 1995, dated 1998).
Read-outs that look alike come from different tables or passages of the source. Starred links: 1 amine or outer side, 2 acyl side, 3 side chain; linkers in the order of their positions; H or OH if unused. Non-standard residues stand in square brackets, D forms with d. Residues, ends and D or L forms follow the SMILES beside them. *: point of attachment. Sta = CC(C)C[C@H](N)[C@@H](O)CC(=O)O; Isovaleryl = CC(C)CC(=O)*; CO = O=C([*:1])[*:2]

System: C-proteinase
Details: cited from earlier work; for inhibition of C-proteinase activity (in words) / concentrations at which inhibitory / inhibitory at low concentrations: background, prior art

| Molecule | inhibition of C-proteinase activity (in words) | also measured |
| --- | --- | --- |
| [Cl-].[Na+] [NaCl] | – | activity relative to that observed with the standard assay concentration of 0.15M (0.2M NaCl): 66%; activity relative to that observed with the standard assay concentration of 0.15M (0.3M NaCl): 38%; activity relative to that observed with the standard assay concentration of 0.15M (0.5M NaCl): 25% |
| CC(C)[C@H](NC(=O)[C@H](CCCNC(=N)N)NC(=O)N[C@@H](Cc1ccccc1)C(=O)O)C(=O)N[C@H](C=O)CCCNC(=N)N [antipain] ({Phe-CO}-Arg-Val-Arg-aldehyde) | weak or no effect | – |
| N.N.O=S(=O)(O)O [ammonium sulfate] | – | concentrations at which inhibitory: 1 to 10 mM |
| N=C(N)NCCC[C@H](N)C(=O)O [arginine] | inhibited | – |
| NCCCC[C@H](N)C(=O)O [lysine] | inhibited | – |
| concanavalin A | – | inhibitory at low concentrations: inhibitory at low concentrations |
| CC(C)C[C@H](NC(=O)[C@@H](NC(=O)N[C@@H](Cc1ccccc1)C(=O)O)[C@@H]1CCN=C(N)N1)C(=O)N[C@H](C=O)Cc1ccccc1 [chymostatin] | relatively strong inhibitors | – |
| CC(C)C[C@@H](N)[C@H](O)C(=O)N[C@H](C(=O)N[C@H](C(=O)N[C@@H](CC(=O)O)C(=O)O)C(C)C)C(C)C [amastatin] | weak or no effect | – |
| CCCCCCCCCCCCOS(=O)(=O)[O-].[Na+] [SDS] | – | inhibitory at low concentrations: inhibitory at low concentrations |
| Tris-HCl [Tris-HCl buffer] | – | inhibition of C-proteinase activity by buffer (concentration of 0.2-0.5M): markedly inhibited activity |
| α2 -Macroglobulin | at least partially inhibit | – |
| [Cd+2] [Cd^2+] | – | inhibitory at low concentrations: inhibitory at low concentrations |
| [Cu+2] [Cu^2+] | – | inhibitory at low concentrations: inhibitory at low concentrations |
| O[C@H](CS)[C@H](O)CS (racemic) [Dithiothreitol] | – | inhibitory at low concentrations: inhibitory at low concentrations |
| CC(C)CC(=O)N[C@H](C(=O)N[C@H](C(=O)N[C@@H](CC(C)C)[C@@H](O)CC(=O)N[C@@H](C)C(=O)N[C@@H](CC(C)C)[C@@H](O)CC(=O)O)C(C)C)C(C)C [pepstatin A] (Isovaleryl-VV[Sta]A[Sta]-OH) | relatively strong inhibitors | – |
| [Zn+2] [Zn^2+] | – | inhibitory at low concentrations: inhibitory at low concentrations |
| phosphate | – | concentrations at which inhibitory: 1 to 10 mM |
| CC(C)C[C@H](NP(=O)(O)O[C@@H]1O[C@@H](C)[C@H](O)[C@@H](O)[C@H]1O)C(=O)N[C@@H](Cc1c[nH]c2ccccc12)C(=O)O [phosphoramidon] | weak or no effect | – |
| CC(C)C[C@H](NC(=O)N[C@H](C(=O)N[C@@H](CCC(N)=O)C(=O)N[C@@H](C)C=O)[C@@H]1CCNC(=N)N1)C(=O)O [elastinal] | weak or no effect | – |
| CC(C)C[C@H](NC(=O)[C@@H](O)[C@H](N)Cc1ccccc1)C(=O)O [bestatin] | weak or no effect | – |
| CC(=O)N[C@@H](CC(C)C)C(=O)N[C@@H](CC(C)C)C(=O)N[C@H](C=O)CCCNC(=N)N [leupeptin] | weak or no effect | – |
| ovostatin (protein, UniProt P20740 37-1473, looked up) Ovostatin: KEPEPQYVLMVPAVLQSDSPSQVCLQFFNLNQTISVRVVLEYDTINTTIFEKNTTTSNGLQCLNFMIPPVTSVSLAFISFTAKGTTFDLKERRSVMIWNMESFVFVQTDKPIYKPGQSVMFRVVALDFNFKPVQEMYPLIAVQDPQNNRIFQWQNVTSEINIVQIEFPLTEEPILGNYKIIVTKKSGERTSHSFLVEEYVLPKFDVTVTAPGSLTVMDSELTVKICAVYTYGQPVEGKVQLSVCRDFDSYGRCKKSPVCQSFTKDLDTDGCLSHILSSKVFELNRIGYKRNLDVKAIVTEKEQVCNLTATQSISITQVMSSLQFENVDHHYRRGIPYFGQIKLVDKDNSPISNKVIQLFVNNKNTHNFTTDINGIAPFSIDTSKIFDPELSLKALYKTSDQCHSEGWIEPSYPDASLSVQRLYSWTSSFVRIEPLWKDMSCGQKRMITVYYILNTEGYEHINIVNFYYVGMAKGKIVLTGEIKVNIQADQNGTFMIPLVVNEKMAPALRLLVYMLHPAKELVADSVRFSIEKCFKNKVQLQFSEKQMLTTSNVSLVIEAAANSFCAVRAVDKSMLLLKSETELSAETIYNLHPIQDLQGYIFNGLNLEDDPQDPCVSSDDIFHKGLYYRPLTSGLGPDVYQFLRDMGMKFFTNSKIRQPTVCTRETVRPPSYFLNAGFTASTHHVKLSAEVAREERGKRHILETIREFFPETWIWDIILINSTGKASVSYTIPDTITEWKASAFCVEELAGFGMSVPATLTAFQPFFVDLTLPYSIIHGEDFLVRANVFNYLNHCIKINVLLLESLDYQAKLISPEDDGCVCAKIRKSYVWNIFPKGTGDVLFSITAETNDDEACEEEALRNIRIDYRDTQIRALLVEPEGIRREETQNFLICMKDDVISQDVAIDLPTNVVEGSPRPSFSVVGDIMGTAIQNVHQLLQMPFGNGEQNMVLFAPNIYVLDYLDKTRQLSEDVKSKTIGYLVSGYQKQLSYKHPDGSYSTFGIRDKEGNTWLTAFVYKSFAEASRFIYIDDNVQAQTLIWLATKQKTDGCFQSTGILVNNAMKGGVENELSLSAYITIALLEAGHSMSHTVIRNAFYCLETASEKNITDIYTQALVAYAFCLAGKAEICESFLRELQKSAKEVDGSKYWEQNQRSAPEKSHLLDHVQSTDVEITSYVLLALLYKPNRSQEDLTKASAIVQWIIRQQNSYGGFASMQDTVVALQALAAYGAATYNSVTQNVIKINSKNTFEKVFTVNNENRLLLQQTPLPQVPGKYSLTVNGTGCVLIQTALRYNIHLPEGAFGFSLSVQTSNASCPRDQPGKFDIVLISSYTGKRSSSNMVIIDVKMLSGFVPVKSSLDQLIDDHTVMQVEYKKNHVLLYLGNILQKRRKEVTFSVEQDFVVTHPKPAPVQIYDYYETEEYAVAEYMSLCRGVVEEMG | at least partially inhibit | – |
